Results as given in article PMC4253628, “Antiviral effects against EV71 of pimprinine and its derivatives isolated from Streptomyces sp” (Virology Journal, 2014).

Columns and labels:
[1] = Cytotoxicity, MTT method, uninfected RD cells; assay type: cell-based; conditions: human; RD cells, MTT, 48 h; mean ± SD of three experiments; read-out: CC50, compound concentration required to reduce cell viability by 50%
Protocol: (§1) The 50% cell cytotoxic concentrations (CC50s) of compounds were calculated using SPSS software. SI were calculated from the ratio of CC50: EC50.

EV71 [2] = test: Progeny virus yield reduction, EV71 in RD cells; assay type: cell-based, Enterovirus 71; conditions: for reduction in progeny virus titers relative to virus control: 80 μM, 100 TCID50 EV71, RD cells, 10 h; for EC90: Enterovirus A, EV71, RD cells, progeny viral yield, read-out: EC90, compound concentration required to achieve 90% virus yield reduction
[3] = Cytotoxicity, MTT method, Hep-2 cells; assay type: cell-based; conditions: human, uninfected Hep-2 cells; host cells of CVB3: Hep-2, MTT, 48 h; read-out: CC50 (CVB3)
Protocol: as §1

[4] = Cytotoxicity, MTT method, HeLa cells; assay type: cell-based; conditions: human, uninfected HeLa cells; host cells of ADV-7: HeLa, MTT, 48 h; read-out: CC50 (ADV-7)
Protocol: as §1

[5] = Cytotoxicity, MTT method, MDCK cells; assay type: cell-based, canine; conditions: dog, uninfected MDCK cells, host cells of H1N1: MDCK
Protocol: as §1

H1N1 [6] = test: Inhibition of H1N1-induced CPE in MDCK cells; assay type: cell-based, influenza virus A/human/Hubei/86/2009 (H1N1)
CVB3 [7] = test: Virus yield reduction assay, CVB3; assay type: cell-based, Coxsackievirus B3; conditions: Enterovirus B, CVB3; Hep-2 cells; — = less than 90% inhibition; read-out: EC90 CVB3, concentration required to inhibit 90% virus yield
HSV-1 [8] = test: Virus yield reduction assay, HSV-1; assay type: cell-based, herpes simplex virus 1; conditions: Hep-2 cells; — = less than 90% inhibition
ADV-7 [9] = test: Virus yield reduction assay, ADV-7; assay type: cell-based, adenovirus 7; conditions: Human mastadenovirus B; HeLa cells; read-out: EC90 ADV-7, concentration required to inhibit 90% virus yield
H1N1 [10] = test: Virus yield reduction assay, H1N1; assay type: cell-based, influenza virus A/human/Hubei/86/2009 (H1N1); conditions: MDCK cells; — = less than 90% inhibition
Protocol: Virus yield reduction assays were also carried out to evaluate further the protective effects of the tested compounds.
The virus suspension, serially diluted 10-fold with DMEM containing 2% FBS, was inoculated to cells in a 96-well plate. After 1 h incubation at 37°C in 5% CO2, unbinding virus was washed out and DMEM maintenance medium supplemented with 2% FBS was added to the cells. After 2 days, the infected cells were monitored for cytopathic effects (CPEs). The virus titer was calculated by the Reed–Muench method.

[11] = Cytotoxicity, ATPLite luminescence-based assay, RD cells; assay type: cell-based; conditions: human
Description: (§2) The ATPLite assay may be more sensitive to cytotoxicity than the MTT method. For RD and Hep-2 cells, similar results were obtained, and for HeLa and MDCK cells, the values of CC50 from the ATPLite assay were smaller than those from MTT assays (Tables 1, 2 and 3).

EV71 [12] = test: Dependence of anti-EV71 activity on virus inoculum (cell viability, MTT) in RD cells; assay type: cell-based, Enterovirus 71; conditions: virus concentration above 10^4 TCID50
EV71 [13] = test: Virucidal activity against EV71; assay type: cell-based, Enterovirus 71; conditions: 80 μM pimprinethine, 40 μM WS-30581 A or 40 μM WS-30581 B; 24 h at 4°C; 10^3 TCID50
EV71 [14] = test: Effective stage analysis, EV71 in RD cells; assay type: cell-based, Enterovirus 71; conditions: 48 h; for virus titer reduction vs untreated cells: 80 μM, added post infection, EV71 100 TCID50; for viability at 80 µM: Enterovirus A, RD, added post infection (therapeutic), EV71 100 TCID50, read-out: viability rates of the infected cells
EV71 [15] = test: Adsorption analysis, EV71 on RD cells; assay type: cell-based, Enterovirus 71; conditions: 160 μM pimprinethine, 80 μM WS-30581 A, 80 μM WS-30581 B; EV71 10^4 TCID50; 2 h adsorption
EV71 [16] = test: Release analysis, EV71 from RD cells; assay type: cell-based, Enterovirus 71; conditions: 80 μM pimprinethine, 40 μM WS-30581 A or B; 12 h p.i.
EV71 [17] = conditions: EV71, RD cells
Protocol: (§3) Cell viability was assessed by an MTT assay, which functions based on the reduction of a MTT into formazan dye by active mitochondria. The cells were treated with 100 μL of MTT (1 mg/mL, Sigma) and incubated at 37°C for 4 h. The reaction was blocked by DMSO and measured in a microplate reader (Bio-Tek Instruments) at 492 nm. The untreated control was arbitrarily set as 100%.
(§4) Confluent cell monolayers in 96-well dishes were infected with 100 TCID50 of corresponding virus dilution mixed with serial dilutions of tested compounds for 1 h at 37°C. Inocula were aspirated and the cells were then incubated with various concentrations of DMEM/tested compounds at 37°C, 5% CO2 for 48 h. CPE were observed microscopically and the viability of the cells was determined using MTT assays. […] The concentrations required for the tested compounds to achieve 50% protection of cells from virus-induced CPE were determined.

[18] = parameters: method as in PMID 6501088; conditions: ddY mice, intraperitoneal injection; cited from earlier work
EV71 [19] = test: microbe, parasite or virus in culture; conditions: Enterovirus A, EV71, RD, 48 h, read-out: EC50, compound concentration required to achieve 50% protection from virus-induced cytopathogenicity
Protocol: as §3, §4

HSV-1 [20] = test: Plaque reduction assay, HSV-1 in Hep-2 cells; conditions: for SI HSV-1, ratio CC50/EC50 / inhibition of HSV-1-induced plaque formation: Hep-2 cells; for EC50: Human alphaherpesvirus 1, HEp-2, read-out: EC50 HSV-1; for inhibition of HSV-1-induced plaque formation: inhibition achievable
Protocol: Confluent monolayers of Hep-2 cells, seeded in a 24-well plate, were infected with HSV-1 at a density of 60–80 plaque-forming units (PFU) per well and treated with media (pre-warmed DMEM containing 2% FBS, 0.8% low-melting agarose) mixed with or without the serially diluted tested compounds for the periods indicated following different procedures. The cells were incubated at 37°C until plaques appeared, followed by fixing with 10% formaldehyde and staining with 0.5% crystal violet. The plaques were counted by visual examination. The ratio of the number of plaques in the treated group to that in the untreated control was calculated.
A plaque reduction assay was performed to measure the inhibitory effects of the test compounds against HSV-1 infection.

CVB3 [21] = test: Inhibition of CVB3-induced CPE in Hep-2 cells; conditions: for EC50: Enterovirus B, CVB3, HEp-2, 48 h, read-out: EC50 CVB3; for SI CVB3, ratio CC50/EC50: Hep-2 cells
Protocol: as §3, §4

ADV-7 [22] = test: Inhibition of ADV-7-induced CPE in HeLa cells; conditions: for SI ADV-7, ratio CC50/EC50: HeLa cells; for EC50: Human mastadenovirus B, HeLa, 48 h, read-out: EC50 ADV-7
Protocol: as §3, §4

EV71 [23] = test: Antiviral activity of MAO inhibitors against EV71; assay type: cell-based, Enterovirus 71
CVB3 [24] = test: Antiviral activity of MAO inhibitors against CVB3; assay type: cell-based, Coxsackievirus B3
[25] = Cytotoxicity, ATPLite luminescence-based assay, Hep-2 cells; assay type: cell-based; conditions: human
Description: as §2

[26] = Cytotoxicity, ATPLite luminescence-based assay, HeLa cells; assay type: cell-based; conditions: human
Description: as §2

[27] = Cytotoxicity, ATPLite luminescence-based assay, MDCK cells; assay type: cell-based, canine; conditions: dog
Description: as §2

SMILES	CC50 at 48 h [1]	reduction in progeny virus titers relative to virus control (EV71 [2])	EC90 (EV71 [2])	CC50 at 48 h [3]	CC50 at 48 h [4]	CC50 at 48 h [5]	inhibition of H1N1 infection (H1N1 [6]; MDCK cells)	EC90 (CVB3 [7])	EC90 HSV-1, concentration required to inhibit 90% virus yield (HSV-1 [8])	EC90 (ADV-7 [9])	EC90 H1N1, concentration required to inhibit 90% virus yield (H1N1 [10])	CC50 [11]	anti-EV71 inhibition at excessive virus inoculum (EV71 [12])	virus titers of EV71 mixture with vs without compound (virucidal activity) (EV71 [13])	virus titer reduction vs untreated cells (EV71 [14])	viability at 80 µM (EV71 [14])	virus titer during virus attachment (adsorption) (EV71 [15])	release of EV71 from RD cells (EV71 [16])	SI (selectivity index), ratio CC50/EC50 (EV71 [17])	EC50 (EV71 [19])	also measured
CCCc1ncc(-c2c[nH]c3ccccc23)o1 [WS-30581 A]	363 ± 13 µM	3.0 log	26 ± 6 µM	72 ± 8 µM	217 ± 4 µM	212 ± 18 µM	less than 70%	39 ± 4 µM	— (—, less than 50% or 90% inhibition)	43 ± 3 µM	— (—, less than 50% or 90% inhibition)	313 ± 49 µM	Inhibition was eliminated	No significant difference	approximately 5.0 log	~100%	no significant decrease	unaffected	23	16 ± 1 µM	EC50 (H1N1 [6]; Influenza A virus, H1N1, MDCK, 48 h, read-out: EC50 H1N1): 38 ± 7 µM; SI H1N1, ratio CC50/EC50 (H1N1 [6]; MDCK cells): 6; acute toxicity [18]: above 250 mg/kg; SI HSV-1, ratio CC50/EC50 (HSV-1 [20]): 4; EC50 (HSV-1 [20]): 18 ± 2 µM; inhibition of HSV-1-induced plaque formation (HSV-1 [20]): approximately 80%; EC50 (CVB3 [21]): 14 ± 4 µM; SI CVB3, ratio CC50/EC50 (CVB3 [21]): 5; SI ADV-7, ratio CC50/EC50 (ADV-7 [22]): 13; EC50 (ADV-7 [22]): 17 ± 18 µM
N[C@@H]1C[C@H]1c1ccccc1 [TCP]																					antiviral activity against EV71 (EV71 [23]): inactive; antiviral activity against CVB3 (CVB3 [24]): inactive
C#CCN(C)Cc1ccccc1 [pargyline]																					antiviral activity against EV71 (EV71 [23]): inactive; antiviral activity against CVB3 (CVB3 [24]): inactive
CCc1ncc(-c2c[nH]c3ccccc23)o1 [Pimprinethine]	835 ± 20 µM	3.0 log	42 ± 3 µM	256 ± 49 µM	750 ± 30 µM	577 ± 73 µM	negligible measurable inhibition	58 ± 9 µM	— (—, less than 50% or 90% inhibition)	63 ± 5 µM	— (—, less than 50% or 90% inhibition)	656 ± 82 µM	Inhibition was eliminated	No significant difference	approximately 5.0 log	~100%	no significant decrease	unaffected	24	35 ± 4 µM	EC50 H1N1 (H1N1 [6]; MDCK cells, 100 TCID50, 48 h, CPE, — = less than 50% inhibition): — (—, less than 50% or 90% inhibition); CC50 [25]: 233 ± 36 µM; CC50 [26]: 550 ± 103 µM; CC50 [27]: 406 ± 48 µM; SI HSV-1, ratio CC50/EC50 (HSV-1 [20]): 6; EC50 (HSV-1 [20]): 45 ± 3 µM; inhibition of HSV-1-induced plaque formation (HSV-1 [20]): approximately 80%; EC50 (CVB3 [21]): 22 ± 4 µM; SI CVB3, ratio CC50/EC50 (CVB3 [21]): 12; SI ADV-7, ratio CC50/EC50 (ADV-7 [22]): 23; EC50 (ADV-7 [22]): 33 ± 6 µM
